# Measured values published in patent EP2698385A1, “Detection of synthetic cannabinoids” (priority 2012, dated 2014).
# Read-outs that look alike come from different tables or passages of the source.
# Columns and labels:
# Format in all cases: binding, sheep
# [1] = test system: Antibody to Immunogen VIII
# [2] = test system: Antibody to Immunogen VII; settings: Cross-reactants at 100 ng/ml; Antibody to Immunogen VII
# [3] = test system: Antibody to Immunogen IV
# [4] = test system: Antibody to Immunogen II; test: Competitive ELISA (Example 36), antibody RS1833B12, tracer ESC4555/LK959, standard JWH-018
# Outline: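 Sheep antiserum IgG coated on plates overnight at 4°C; standard or cross-reactant competes with hapten-HRP conjugate in Tris buffer pH 7.2 for 1 h at 25°C.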
# [5] = Cross-reactants at 100 ng/ml, Antibody to Immunogen VIII
# [6] = Cross-reactants at 100 ng/ml, Antibody to Immunogen IV
# [7] = Cross-reactants at 100 ng/ml, Antibody to Immunogen II
smiles,measurement,setting,value
O=C(c1cccc2ccccc12)c1cn(CCCCCO)c2ccccc12 [JWH-018 N-(5-hydroxypentyl) metabolite],%B/B0,[1]; [5],57.37%
same,%B/B0,[2],53.32%
same,%B/B0,[3]; [6],78.42%
same,%B/B0,[4]; [7],53.38%
CCCCn1cc(C(=O)c2cccc3ccccc23)c2ccccc21 [JWH-073],%B/B0,[1]; [5],25.50%
same,%B/B0,[2],58.34%
same,%B/B0,[3]; [6],13.63%
same,%B/B0,[4]; [7],15.24%
O=C(O)CCCCn1cc(C(=O)c2cccc3ccccc23)c2ccccc21 [JWH-018 N-pentanoic acid metabolite],%B/B0,[1]; [5],100.31%
same,%B/B0,[2],53.02%
same,%B/B0,[3]; [6],99.89%
same,%B/B0,[4]; [7],85.61%
"O=C(c1cccc2ccccc12)c1c[nH]c2ccccc12 [3-(1-naphthoyl)-1H-Indole, 3-(1-naphthoyl)-1H-indole]",%B/B0,[1]; [5],90.49%
same,%B/B0,[2],80.08%
same,%B/B0,[3]; [6],95.55%
same,%B/B0,[4]; [7],99.18%
CCCCCn1cc(C(=O)c2cccc3ccccc23)c2cc(O)ccc21 [JWH-018 5-hydroxyindole metabolite],%B/B0,[1]; [5],87.67%
same,%B/B0,[2],85.76%
same,%B/B0,[3]; [6],78.56%
same,%B/B0,[4]; [7],12.14%
CCCCCn1cc(C(=O)c2ccc(Cl)c3ccccc23)c2ccccc21 [JWH-398],%B/B0,[1]; [5],18.66%
same,%B/B0,[2],94.47%
same,%B/B0,[3]; [6],6.00%
same,%B/B0,[4]; [7],30.31%
CCCCCn1cc(C(=O)c2cccc3ccccc23)c2ccccc21 [JWH-018],%B/B0,[1]; [5],17.66%
same,%B/B0,[1]; JWH-018 standard 1 ng/ml,79%
same,%B/B0,[1]; JWH-018 standard 3 ng/ml,63%
same,%B/B0,[1]; JWH-018 standard 5 ng/ml,51%
same,%B/B0,[1]; JWH-018 standard 10 ng/ml,40%
same,%B/B0,[1]; JWH-018 standard 20 ng/ml,29%
same,%B/B0,[1]; JWH-018 standard 40 ng/ml,22%
same,%B/B0,[1]; JWH-018 standard 80 ng/ml,16%
same,IC50,"[1]; Table 3c standard curve, standard concentration which produces 50% B/B0",5.230 ng/mL
same,%B/B0,[2],67.66%
same,%B/B0,[3]; [6],6.80%
same,%B/B0,[3]; JWH-018 standard 1.25 ng/ml,87%
same,%B/B0,[3]; JWH-018 standard 2.5 ng/ml,68%
same,%B/B0,[3]; JWH-018 standard 5 ng/ml,42%
same,%B/B0,[3]; JWH-018 standard 10 ng/ml,26%
same,%B/B0,[3]; JWH-018 standard 20 ng/ml,16%
same,%B/B0,[3]; JWH-018 standard 40 ng/ml,10%
same,%B/B0,[3]; JWH-018 standard 80 ng/ml,7%
same,IC50,"[3]; Table 3b standard curve, standard concentration which produces 50% B/B0",4.133 ng/mL
same,%B/B0,[4]; [7],9.29%
same,%B/B0,[4]; JWH-018 standard 0.625 ng/ml,68%
same,%B/B0,[4]; JWH-018 standard 1.25 ng/ml,53%
same,%B/B0,[4]; JWH-018 standard 2.5 ng/ml,34%
same,%B/B0,[4]; JWH-018 standard 5 ng/ml,25%
same,%B/B0,[4]; JWH-018 standard 10 ng/ml,17%
same,%B/B0,[4]; JWH-018 standard 20 ng/ml,13%
same,%B/B0,[4]; JWH-018 standard 40 ng/ml,10%
same,IC50,"[4]; Table 3a standard curve, standard concentration which produces 50% B/B0",1.333 ng/mL
CCCCCn1cc(C(=O)c2cccc3ccccc23)c2c(O)cccc21 [JWH-018 4-hydroxyindole metabolite],%B/B0,[1]; [5],16.72%
same,%B/B0,[2],89.96%
same,%B/B0,[3]; [6],20.42%
same,%B/B0,[4]; [7],29.49%
"O=C(c1cccc2ccccc12)c1cn(CCN2CCOCC2)c2ccccc12 [WIN 55,225 (other name JWH-200), JWH-200]",%B/B0,[1]; [5],98.81%
same,%B/B0,[2],42.85%
same,%B/B0,[3]; [6],77.08%
same,%B/B0,[4]; [7],54.02%
CCCCCn1cc(C(=O)c2cccc3ccccc23)c2ccc(O)cc21 [JWH-018 6-hydroxyindole metabolite],%B/B0,[1]; [5],89.86%
same,%B/B0,[2],68.17%
same,%B/B0,[3]; [6],51.00%
same,%B/B0,[4]; [7],24.39%
